Source: ChEMBL document CHEMBL3885881, “DrugMatrix”

Species on record: Rattus norvegicus
Assay: DrugMatrix - Regimen: Daily Repeat
Format: toxicity, organism-based, Sprague-Dawley
Set-up: regimen Daily Repeat, gender Male, age 6-8 weeks
Details: in vivo, po, route oral GAVAGE, vehicle .5 % CMC; for ABSOLUTE BASOPHIL / ABSOLUTE EOSINOPHIL / ABSOLUTE LYMPHOCYTE / ABSOLUTE MONOCYTE / ABSOLUTE SEGMENTED NEUTROPHIL / BASOPHIL / EOSINOPHIL / ERYTHROCYTE COUNT / HEMATOCRIT / HEMOGLOBIN / LEUKOCYTE COUNT / LYMPHOCYTE / MEAN CORPUSCULAR HEMOGLOBIN / MEAN CORPUSCULAR HEMOGLOBIN CONCENTRATION / MEAN CORPUSCULAR VOLUME / MONOCYTE / NEUTROPHIL / NUCLEATED RED BLOOD CELLS / PLATELET COUNT: tissue Blood; for ALANINE AMINOTRANSFERASE / ALBUMIN / ASPARTATE AMINOTRANSFERASE / BLOOD UREA NITROGEN / CARBON DIOXIDE / CHLORIDE / CHOLESTEROL / CREATINE PHOSPHOKINASE / CREATININE / GLUCOSE / LACTATE DEHYDROGENASE / LIPASE / POTASSIUM / SODIUM / TOTAL BILIRUBIN / TOTAL PROTEIN / URIC ACID: tissue Plasma
[1] = 47 mg/kg, 72 h, dose level Low, time 3 day
[2] = 47 mg/kg, 120 h, dose level Low, time 5 day
[3] = 500 mg/kg, 72 h, dose level High, time 3 day
[4] = 500 mg/kg, 120 h, dose level High, time 5 day

Structure (SMILES): OCCOCCN1CCN(C2=Nc3ccccc3Sc3ccccc32)CC1 [QUETIAPINE]
- ABSOLUTE BASOPHIL [1]: 0 CELLS/uL
- ABSOLUTE EOSINOPHIL [1]: 0 CELLS/uL
- ABSOLUTE LYMPHOCYTE [1]: 7521.33 CELLS/uL
- ABSOLUTE MONOCYTE [1]: 22.33 CELLS/uL
- ABSOLUTE SEGMENTED NEUTROPHIL [1]: 789.67 CELLS/uL
- BASOPHIL [1]: 0%
- EOSINOPHIL [1]: 0%
- ERYTHROCYTE COUNT [1]: 5.57 x10E6/uL
- HEMATOCRIT [1]: 34.3%
- HEMOGLOBIN [1]: 13.87 G/DL
- LEUKOCYTE COUNT [1]: 8.33 x10E3/uL
- LYMPHOCYTE [1]: 90.33%
- MEAN CORPUSCULAR HEMOGLOBIN [1]: 24.93 pg
- MEAN CORPUSCULAR HEMOGLOBIN CONCENTRATION [1]: 40.43 G/DL
- MEAN CORPUSCULAR VOLUME [1]: 61.7 fL
- MONOCYTE [1]: 0.33%
- NEUTROPHIL [1]: 9.33%
- NUCLEATED RED BLOOD CELLS [1]: 0.33 /100WBC
- PLATELET COUNT [1]: 1115.67 x10E3/uL
- ALANINE AMINOTRANSFERASE [1]: 48.33 u/L
- ALBUMIN [1]: 4.63 G/DL
- ASPARTATE AMINOTRANSFERASE [1]: 64.67 u/L
- BLOOD UREA NITROGEN [1]: 15.33 mg/dL
- CARBON DIOXIDE [1]: 31 mmol/L
- CHLORIDE [1]: 101 MEQ/L
- CHOLESTEROL [1]: 78.33 mg/dL
- CREATINE PHOSPHOKINASE [1]: 126.33 u/L
- CREATININE [1]: 0.17 mg/dL
- GLUCOSE [1]: 143.33 mg/dL
- LACTATE DEHYDROGENASE [1]: 116.33 u/L
- LIPASE [1]: 12 u/L
- POTASSIUM [1]: 6.23 MEQ/L
- SODIUM [1]: 148.9 MEQ/L
- TOTAL BILIRUBIN [1]: 0.2 mg/dL
- TOTAL PROTEIN [1]: 6.03 G/DL
- URIC ACID [1]: 1.03 mg/dL
- ABSOLUTE BASOPHIL [2]: 0 CELLS/uL
- ABSOLUTE EOSINOPHIL [2]: 0 CELLS/uL
- ABSOLUTE LYMPHOCYTE [2]: 13853.67 CELLS/uL
- ABSOLUTE MONOCYTE [2]: 281 CELLS/uL
- ABSOLUTE SEGMENTED NEUTROPHIL [2]: 1032 CELLS/uL
- BASOPHIL [2]: 0%
- EOSINOPHIL [2]: 0%
- ERYTHROCYTE COUNT [2]: 6.08 x10E6/uL
- HEMATOCRIT [2]: 38.03%
- HEMOGLOBIN [2]: 15.07 G/DL
- LEUKOCYTE COUNT [2]: 15.17 x10E3/uL
- LYMPHOCYTE [2]: 91.33%
- MEAN CORPUSCULAR HEMOGLOBIN [2]: 24.83 pg
- MEAN CORPUSCULAR HEMOGLOBIN CONCENTRATION [2]: 39.6 G/DL
- MEAN CORPUSCULAR VOLUME [2]: 62.6 fL
- MONOCYTE [2]: 2%
- NEUTROPHIL [2]: 6.67%
- NUCLEATED RED BLOOD CELLS [2]: 0 /100WBC
- PLATELET COUNT [2]: 1335.33 x10E3/uL
- ALANINE AMINOTRANSFERASE [2]: 39.33 u/L
- ALBUMIN [2]: 4.63 G/DL
- ASPARTATE AMINOTRANSFERASE [2]: 90.67 u/L
- BLOOD UREA NITROGEN [2]: 20 mg/dL
- CARBON DIOXIDE [2]: 25 mmol/L
- CHLORIDE [2]: 96.67 MEQ/L
- CHOLESTEROL [2]: 61.33 mg/dL
- CREATINE PHOSPHOKINASE [2]: 403.67 u/L
- CREATININE [2]: 0.22 mg/dL
- GLUCOSE [2]: 148 mg/dL
- LACTATE DEHYDROGENASE [2]: 287 u/L
- LIPASE [2]: 9.33 u/L
- POTASSIUM [2]: 7.45 MEQ/L
- SODIUM [2]: 142.07 MEQ/L
- TOTAL BILIRUBIN [2]: 0.13 mg/dL
- TOTAL PROTEIN [2]: 6.67 G/DL
- URIC ACID [2]: 2.17 mg/dL
- ABSOLUTE BASOPHIL [3]: 0 CELLS/uL
- ABSOLUTE EOSINOPHIL [3]: 0 CELLS/uL
- ABSOLUTE LYMPHOCYTE [3]: 9655.67 CELLS/uL
- ABSOLUTE MONOCYTE [3]: 233.67 CELLS/uL
- ABSOLUTE SEGMENTED NEUTROPHIL [3]: 577.33 CELLS/uL
- BASOPHIL [3]: 0%
- EOSINOPHIL [3]: 0%
- ERYTHROCYTE COUNT [3]: 5.61 x10E6/uL
- HEMATOCRIT [3]: 34.93%
- HEMOGLOBIN [3]: 14.17 G/DL
- LEUKOCYTE COUNT [3]: 10.47 x10E3/uL
- LYMPHOCYTE [3]: 92.67%
- MEAN CORPUSCULAR HEMOGLOBIN [3]: 25.27 pg
- MEAN CORPUSCULAR HEMOGLOBIN CONCENTRATION [3]: 40.53 G/DL
- MEAN CORPUSCULAR VOLUME [3]: 62.27 fL
- MONOCYTE [3]: 2%
- NEUTROPHIL [3]: 5.33%
- NUCLEATED RED BLOOD CELLS [3]: 0 /100WBC
- PLATELET COUNT [3]: 1122.67 x10E3/uL
- ALANINE AMINOTRANSFERASE [3]: 50.33 u/L
- ALBUMIN [3]: 4.3 G/DL
- ASPARTATE AMINOTRANSFERASE [3]: 75 u/L
- BLOOD UREA NITROGEN [3]: 16.67 mg/dL
- CARBON DIOXIDE [3]: 26.33 mmol/L
- CHOLESTEROL [3]: 46.67 mg/dL
- CREATINE PHOSPHOKINASE [3]: 448 u/L
- CREATININE [3]: 0.21 mg/dL
- GLUCOSE [3]: 138 mg/dL
- LACTATE DEHYDROGENASE [3]: 232.33 u/L
- LIPASE [3]: 8 u/L
- POTASSIUM [3]: 6.14 MEQ/L
- SODIUM [3]: 143.73 MEQ/L
- TOTAL BILIRUBIN [3]: 0.23 mg/dL
- TOTAL PROTEIN [3]: 5.57 G/DL
- URIC ACID [3]: 1.33 mg/dL
- ABSOLUTE BASOPHIL [4]: 0 CELLS/uL
- ABSOLUTE EOSINOPHIL [4]: 0 CELLS/uL
- ABSOLUTE LYMPHOCYTE [4]: 15536 CELLS/uL
- ABSOLUTE MONOCYTE [4]: 318.67 CELLS/uL
- ABSOLUTE SEGMENTED NEUTROPHIL [4]: 1612 CELLS/uL
- BASOPHIL [4]: 0%
- EOSINOPHIL [4]: 0%
- ERYTHROCYTE COUNT [4]: 6.23 x10E6/uL
- HEMATOCRIT [4]: 37.83%
- HEMOGLOBIN [4]: 15.17 G/DL
- LEUKOCYTE COUNT [4]: 17.47 x10E3/uL
- LYMPHOCYTE [4]: 89%
- MEAN CORPUSCULAR HEMOGLOBIN [4]: 24.33 pg
- MEAN CORPUSCULAR HEMOGLOBIN CONCENTRATION [4]: 40.1 G/DL
- MEAN CORPUSCULAR VOLUME [4]: 60.67 fL
- MONOCYTE [4]: 1.67%
- NEUTROPHIL [4]: 9.33%
- NUCLEATED RED BLOOD CELLS [4]: 0 /100WBC
- PLATELET COUNT [4]: 1152.33 x10E3/uL
- ALANINE AMINOTRANSFERASE [4]: 50.33 u/L
- ALBUMIN [4]: 4.37 G/DL
- ASPARTATE AMINOTRANSFERASE [4]: 71 u/L
- BLOOD UREA NITROGEN [4]: 20 mg/dL
- CARBON DIOXIDE [4]: 25 mmol/L
- CHLORIDE [4]: 103 MEQ/L
- CHOLESTEROL [4]: 56.67 mg/dL
- CREATINE PHOSPHOKINASE [4]: 184.33 u/L
- CREATININE [4]: 0.29 mg/dL
- GLUCOSE [4]: 154 mg/dL
- LACTATE DEHYDROGENASE [4]: 150.67 u/L
- LIPASE [4]: 8.67 u/L
- POTASSIUM [4]: 6.89 MEQ/L
- SODIUM [4]: 145 MEQ/L
- TOTAL BILIRUBIN [4]: 0.2 mg/dL
- TOTAL PROTEIN [4]: 6.13 G/DL
- URIC ACID [4]: 2.13 mg/dL
